Data as given in PMC5218480 (PLoS ONE, 2017).

System: MV-4-11 cells
Assay: Gene expression microarray analysis (Affymetrix PrimeView) and GSEA
Assay type: cell-based, human
Design: RFU PODN (11730768_x_at) / Fold change /veh PODN (11730768_x_at) / RFU LINC00158 (11744669_a_at) / Fold change /veh LINC00158 (11744669_a_at) / RFU DUSP10 (11751237_a_at) / Fold change /veh DUSP10 (11751237_a_at) / RFU ID3 (11757404_x_at) / Fold change /veh ID3 (11757404_x_at) / RFU PLEKHG5 (11737974_s_at) / Fold change /veh PLEKHG5 (11737974_s_at) / RFU LRRC4B (11730491_at) / Fold change /veh LRRC4B (11730491_at) / RFU GIMAP4 (11747438_a_at) / Fold change /veh GIMAP4 (11747438_a_at) / RFU KRT8 (11758183_x_at) / Fold change /veh KRT8 (11758183_x_at) / RFU CNN1 (11734310_a_at) / Fold change /veh CNN1 (11734310_a_at) / RFU VPS37D (11726825_at) / Fold change /veh VPS37D (11726825_at) / RFU C10orf10 (11716522_x_at) / Fold change /veh C10orf10 (11716522_x_at) / RFU KIR2DL2 /// KIR2DL4 /// KIR2DL5A /// KIR2DL5B /// KIR2DS1 /// KIR2DS2 /// KIR2DS3 /// KIR2DS4 /// KIR3DL3 /// KIR3DL3 /// KIR3DS1 (11738374_at) / Fold change /veh KIR2DL2 /// KIR2DL4 /// KIR2DL5A /// KIR2DL5B /// KIR2DS1 /// KIR2DS2 /// KIR2DS3 /// KIR2DS4 /// KIR3DL3 /// KIR3DL3 /// KIR3DS1 (11738374_at) / RFU C1QL1 (11718748_at) / Fold change /veh C1QL1 (11718748_at) / RFU TMPRSS4 (11747572_a_at) / Fold change /veh TMPRSS4 (11747572_a_at) / RFU HAMP (11756126_x_at) / Fold change /veh HAMP (11756126_x_at) / RFU RNFT2 (11725882_a_at) / Fold change /veh RNFT2 (11725882_a_at) / RFU NR4A2 (11747474_a_at) / Fold change /veh NR4A2 (11747474_a_at) / RFU ABCC12 (11746883_a_at) / Fold change /veh ABCC12 (11746883_a_at) / RFU TMEM136 (11760407_x_at) / Fold change /veh TMEM136 (11760407_x_at) / RFU CLDN22 /// WWC2 (11732394_at) / Fold change /veh CLDN22 /// WWC2 (11732394_at) / RFU HLA-DPB1 (11760878_x_at) / Fold change /veh HLA-DPB1 (11760878_x_at) / RFU SPINT1 (11716480_a_at) / Fold change /veh SPINT1 (11716480_a_at) / RFU GAP43 (11754022_s_at) / Fold change /veh GAP43 (11754022_s_at) / RFU A4GNT (11735810_at) / Fold change /veh A4GNT (11735810_at) / RFU PRB3 (11715151_x_at) / Fold change /veh PRB3 (11715151_x_at) / RFU TUBB4B (11761932_at) / Fold change /veh TUBB4B (11761932_at) / RFU CAPN14 (11732068_a_at) / Fold change /veh CAPN14 (11732068_a_at) / RFU TMCC2 (11721928_a_at) / Fold change /veh TMCC2 (11721928_a_at) / RFU IRGQ (11745062_a_at) / Fold change /veh IRGQ (11745062_a_at) / RFU FAM174B (11720279_a_at) / Fold change /veh FAM174B (11720279_a_at) / RFU TMPRSS4 (11748680_a_at) / Fold change /veh TMPRSS4 (11748680_a_at) / RFU FAM212B (11763350_a_at) / Fold change /veh FAM212B (11763350_a_at) / RFU PLEKHG5 (11743358_a_at) / Fold change /veh PLEKHG5 (11743358_a_at) / RFU ZSCAN30 (11745921_a_at) / Fold change /veh ZSCAN30 (11745921_a_at) / RFU CMKLR1 (11741424_a_at) / Fold change /veh CMKLR1 (11741424_a_at) / RFU LOC101060620 /// MAPK8IP1 (11723275_at) / Fold change /veh LOC101060620 /// MAPK8IP1 (11723275_at) / RFU SPTSSB (11747773_x_at) / Fold change /veh SPTSSB (11747773_x_at) / RFU PRSS12 (11739890_at) / Fold change /veh PRSS12 (11739890_at) / RFU BIN1 (11741810_x_at) / Fold change /veh BIN1 (11741810_x_at) / RFU WNT11 (11732464_a_at) / Fold change /veh WNT11 (11732464_a_at) / RFU C10orf10 (11716521_a_at) / Fold change /veh C10orf10 (11716521_a_at) / RFU C5orf56 (11738089_at) / Fold change /veh C5orf56 (11738089_at) / RFU CYB561 (11721691_x_at) / Fold change /veh CYB561 (11721691_x_at) / RFU ANKRD19P (11752326_a_at) / Fold change /veh ANKRD19P (11752326_a_at) / RFU OR2T12 /// OR2T33 /// OR2T8 (11738714_s_at) / Fold change /veh OR2T12 /// OR2T33 /// OR2T8 (11738714_s_at) / RFU VCAN (11748164_a_at) / Fold change /veh VCAN (11748164_a_at) / RFU JSRP1 (11732532_at) / Fold change /veh JSRP1 (11732532_at) / RFU KRTAP10-11 (11738290_x_at) / Fold change /veh KRTAP10-11 (11738290_x_at) / RFU MYO3A (11730013_a_at) / Fold change /veh MYO3A (11730013_a_at) / RFU EBF3 (11725865_a_at) / Fold change /veh EBF3 (11725865_a_at) / RFU CAMK2N1 (11719241_x_at) / Fold change /veh CAMK2N1 (11719241_x_at) / RFU C5orf56 (11738088_a_at) / Fold change /veh C5orf56 (11738088_a_at) / RFU OLFML3 (11715873_a_at) / Fold change /veh OLFML3 (11715873_a_at) / RFU LOC100653217 /// NTM (11731650_a_at) / Fold change /veh LOC100653217 /// NTM (11731650_a_at) / RFU MAPK11 (11762145_a_at) / Fold change /veh MAPK11 (11762145_a_at) / RFU FIZ1 (11724087_x_at) / Fold change /veh FIZ1 (11724087_x_at) / RFU OASL (11726364_x_at) / Fold change /veh OASL (11726364_x_at) / RFU SOX15 (11748057_x_at) / Fold change /veh SOX15 (11748057_x_at) / RFU CD79A (11719716_a_at) / Fold change /veh CD79A (11719716_a_at) / RFU HIST1H1D (11736915_at) / Fold change /veh HIST1H1D (11736915_at) / RFU CASKIN2 (11723855_a_at) / Fold change /veh CASKIN2 (11723855_a_at) / RFU LOC730098 (11760151_x_at) / Fold change /veh LOC730098 (11760151_x_at) / RFU OR4N2 (11742367_at) / Fold change /veh OR4N2 (11742367_at) / RFU PRRT2 (11749266_a_at) / Fold change /veh PRRT2 (11749266_a_at) / RFU SNX32 (11753110_a_at) / Fold change /veh SNX32 (11753110_a_at) / RFU CDHR5 (11726645_a_at) / Fold change /veh CDHR5 (11726645_a_at) / RFU RCAN1 (11760418_a_at) / Fold change /veh RCAN1 (11760418_a_at) / RFU FAM167A (11723789_a_at) / Fold change /veh FAM167A (11723789_a_at) / RFU FAM26E (11764081_at) / Fold change /veh FAM26E (11764081_at) / RFU ISYNA1 (11749810_s_at) / Fold change /veh ISYNA1 (11749810_s_at) / RFU ACY1 (11761880_at) / Fold change /veh ACY1 (11761880_at) / RFU 11764098_at / Fold change /veh 11764098_at / RFU SAMD14 (11745864_x_at) / Fold change /veh SAMD14 (11745864_x_at) / RFU NPB (11741838_a_at) / Fold change /veh NPB (11741838_a_at) / RFU TMPRSS6 (11731388_a_at) / Fold change /veh TMPRSS6 (11731388_a_at) / RFU KRTAP10-2 (11738614_at) / Fold change /veh KRTAP10-2 (11738614_at) / RFU ARHGAP8 /// PRR5-ARHGAP8 (11727945_x_at) / Fold change /veh ARHGAP8 /// PRR5-ARHGAP8 (11727945_x_at) / RFU KRTAP5-7 /// NADSYN1 (11734609_at) / Fold change /veh KRTAP5-7 /// NADSYN1 (11734609_at) / RFU RASL12 (11751679_a_at) / Fold change /veh RASL12 (11751679_a_at) / RFU CDKN2B (11736163_a_at) / Fold change /veh CDKN2B (11736163_a_at) / RFU PRF1 (11729649_at) / Fold change /veh PRF1 (11729649_at) / RFU, ZNF638 /// ZNF638-IT1 / Fold change vs veh, ZNF638 /// ZNF638-IT1 / RFU, PANK3 / Fold change vs veh, PANK3 / RFU, SH3YL1 / Fold change vs veh, SH3YL1 / RFU, ZEB2 / Fold change vs veh, ZEB2 / RFU, NRIP1 / Fold change vs veh, NRIP1 / RFU, PTTG1IP / Fold change vs veh, PTTG1IP / RFU, CAPN2 / Fold change vs veh, CAPN2 / RFU, MED14 / Fold change vs veh, MED14 / RFU, SNORA58 / Fold change vs veh, SNORA58 / RFU, C1orf63 / Fold change vs veh, C1orf63 / RFU, LRRFIP1 / Fold change vs veh, LRRFIP1 / RFU, NDUFAF7 / Fold change vs veh, NDUFAF7 / RFU, SLC12A2 / Fold change vs veh, SLC12A2 / RFU, IBTK / Fold change vs veh, IBTK / RFU, ESF1 / Fold change vs veh, ESF1 / Fold change vs veh, TMEM50B / RFU, TAOK1 / Fold change vs veh, TAOK1 / RFU, ACBD3 / Fold change vs veh, ACBD3 / RFU, TMA16 / Fold change vs veh, TMA16 / RFU, RWDD3 / Fold change vs veh, RWDD3 / RFU, BCAT1 / Fold change vs veh, BCAT1 / RFU, EDEM3 / Fold change vs veh, EDEM3 / RFU, TMEM33 / Fold change vs veh, TMEM33 / RFU, WDR75 / Fold change vs veh, WDR75 / RFU, AHCTF1 / Fold change vs veh, AHCTF1 / RFU, TFRC / Fold change vs veh, TFRC / RFU, ZDHHC17 / Fold change vs veh, ZDHHC17 / RFU, NOM1 / Fold change vs veh, NOM1 / RFU, ARL8B / Fold change vs veh, ARL8B / RFU, ZBTB11 / Fold change vs veh, ZBTB11 / RFU, TAMM41 / Fold change vs veh, TAMM41 / RFU, KIAA1704 /// LOC100996395 / Fold change vs veh, KIAA1704 /// LOC100996395 / RFU, ING1 / Fold change vs veh, ING1 / RFU, TRMT61B / Fold change vs veh, TRMT61B / RFU, FUBP3 / Fold change vs veh, FUBP3 / RFU, TP53 / Fold change vs veh, TP53 / RFU, TNKS2 / Fold change vs veh, TNKS2 / RFU, ZFP14 / Fold change vs veh, ZFP14 / RFU, ACTR2 / Fold change vs veh, ACTR2 / RFU, PPP3R1 / Fold change vs veh, PPP3R1 / RFU, PIK3R1 / Fold change vs veh, PIK3R1 / RFU, HNRNPA1 / Fold change vs veh, HNRNPA1 / RFU, RNF170 / Fold change vs veh, RNF170 / RFU, ZNF28 / Fold change vs veh, ZNF28 / RFU, RNGTT / Fold change vs veh, RNGTT / RFU, OGT / Fold change vs veh, OGT / RFU, BRD1 / Fold change vs veh, BRD1 / RFU, MARS / Fold change vs veh, MARS / RFU, ZNF655 / Fold change vs veh, ZNF655 / RFU, FAHD1 / Fold change vs veh, FAHD1 / RFU, BDP1 / Fold change vs veh, BDP1 / RFU, LRRCC1 / Fold change vs veh, LRRCC1 / RFU, ARID1A / Fold change vs veh, ARID1A / RFU, ZNF146 / Fold change vs veh, ZNF146 / RFU, ZNF330 / Fold change vs veh, ZNF330 / RFU, GPN3 / Fold change vs veh, GPN3 / RFU, C9orf123 / Fold change vs veh, C9orf123 / RFU, N4BP2L2 / Fold change vs veh, N4BP2L2 / RFU, ARFIP1 / Fold change vs veh, ARFIP1 / RFU, FAM179B / Fold change vs veh, FAM179B / RFU, BCL10 / Fold change vs veh, BCL10 / RFU, UHRF1BP1L / Fold change vs veh, UHRF1BP1L / RFU, BET1 / Fold change vs veh, BET1 / RFU, CNOT2 / Fold change vs veh, CNOT2 / RFU, ZNF268 / Fold change vs veh, ZNF268 / Fold change vs veh, ZNF507 / RFU, DGCR2 / Fold change vs veh, DGCR2 / RFU, WDSUB1 / Fold change vs veh, WDSUB1 / Fold change vs veh, HSP90B1 /// MIR3652 / RFU, ADSS / Fold change vs veh, ADSS / RFU, GK / Fold change vs veh, GK / RFU, ZNF148 / Fold change vs veh, ZNF148 / RFU, TAF9 / Fold change vs veh, TAF9 / RFU, SLC1A5 / Fold change vs veh, SLC1A5 / RFU, SLMO2 / Fold change vs veh, SLMO2 / RFU, ABCC4 / Fold change vs veh, ABCC4 / RFU, LOC101060439 /// RAP1B / Fold change vs veh, LOC101060439 /// RAP1B / RFU, RFX7 / Fold change vs veh, RFX7 / RFU, GTPBP10 / Fold change vs veh, GTPBP10 / RFU, CNEP1R1 / Fold change vs veh, CNEP1R1 / RFU, BIVM-ERCC5 /// ERCC5 / Fold change vs veh, BIVM-ERCC5 /// ERCC5 / RFU, ILF3 / Fold change vs veh, ILF3 / RFU 11762660_at / Fold change /veh 11762660_at / RFU VCAN (11757783_s_at) / Fold change /veh VCAN (11757783_s_at) / RFU DDX43 (11728927_at) / Fold change /veh DDX43 (11728927_at) / RFU KRT8 (11758188_x_at) / Fold change /veh KRT8 (11758188_x_at) / RFU NKD1 (11759106_at) / Fold change /veh NKD1 (11759106_at) / RFU SRD5A1 (11742802_a_at) / Fold change /veh SRD5A1 (11742802_a_at) / RFU TPSAB1 /// TPSB2 (11721975_s_at) / Fold change /veh TPSAB1 /// TPSB2 (11721975_s_at) / RFU GSTM3 (11746129_a_at) / Fold change /veh GSTM3 (11746129_a_at) / RFU IL23R (11737362_x_at) / Fold change /veh IL23R (11737362_x_at) / RFU TMEM51 (11727254_a_at) / Fold change /veh TMEM51 (11727254_a_at) / RFU PIWIL2 (11732686_x_at) / Fold change /veh PIWIL2 (11732686_x_at) / RFU ORM1 (11744905_x_at) / Fold change /veh ORM1 (11744905_x_at) / RFU CCDC152 (11743942_at) / Fold change /veh CCDC152 (11743942_at) / RFU ECM1 (11717891_a_at) / Fold change /veh ECM1 (11717891_a_at) / RFU IL23R (11748794_a_at) / Fold change /veh IL23R (11748794_a_at) / RFU TNFAIP8L3 (11732012_x_at) / Fold change /veh TNFAIP8L3 (11732012_x_at) / RFU MBOAT4 (11741988_at) / Fold change /veh MBOAT4 (11741988_at) / RFU 11764193_at / Fold change /veh 11764193_at / RFU TMEM53 (11763286_at) / Fold change /veh TMEM53 (11763286_at) / RFU MAGEB2 (11727129_at) / Fold change /veh MAGEB2 (11727129_at) / RFU TMEM200A (11744735_a_at) / Fold change /veh TMEM200A (11744735_a_at) / RFU CCDC152 (11751479_a_at) / Fold change /veh CCDC152 (11751479_a_at) / RFU FAM211A (11726209_a_at) / Fold change /veh FAM211A (11726209_a_at) / RFU RGS16 (11746705_a_at) / Fold change /veh RGS16 (11746705_a_at) / RFU VCAN (11755009_s_at) / Fold change /veh VCAN (11755009_s_at) / RFU RHOB (11743442_s_at) / Fold change /veh RHOB (11743442_s_at) / RFU RGS16 (11720943_a_at) / Fold change /veh RGS16 (11720943_a_at) / RFU RGS16 (11720944_at) / Fold change /veh RGS16 (11720944_at) / RFU, VPS4B / Fold change vs veh, VPS4B / RFU, CREB1 / Fold change vs veh, CREB1 / RFU, DNAJC13 / Fold change vs veh, DNAJC13 / RFU, GNAQ / Fold change vs veh, GNAQ / RFU, CDK5R1 / Fold change vs veh, CDK5R1 / RFU, ZRANB3 / Fold change vs veh, ZRANB3 / RFU, CUL4A / Fold change vs veh, CUL4A / RFU, CCNY / Fold change vs veh, CCNY / RFU, UFL1 / Fold change vs veh, UFL1 / RFU, COG3 / Fold change vs veh, COG3 / RFU, DIAPH2 / Fold change vs veh, DIAPH2 / RFU, SKA2 / Fold change vs veh, SKA2 / RFU, AFF3 / Fold change vs veh, AFF3 / RFU, LMF1 / Fold change vs veh, LMF1 / RFU, IPO11 / Fold change vs veh, IPO11 / RFU, DFFB / Fold change vs veh, DFFB / RFU, FOXP1 / Fold change vs veh, FOXP1 / RFU, CARD8 / Fold change vs veh, CARD8 / RFU, STRN3 / Fold change vs veh, STRN3 / RFU, ADK / Fold change vs veh, ADK / RFU, RASSF2 / Fold change vs veh, RASSF2 / RFU, WIPF1 / Fold change vs veh, WIPF1 / RFU, LARP1B / Fold change vs veh, LARP1B / RFU, RASA1 / Fold change vs veh, RASA1 / RFU, RB1 / Fold change vs veh, RB1 / RFU, PPFIA1 / Fold change vs veh, PPFIA1 / RFU, MAT2A / Fold change vs veh, MAT2A / RFU, CCT5 / Fold change vs veh, CCT5 / RFU, WDR92 / Fold change vs veh, WDR92 / RFU, CUX1 / Fold change vs veh, CUX1 / RFU, TTC7A / Fold change vs veh, TTC7A / RFU, TMEM135 / Fold change vs veh, TMEM135 / RFU, DEPTOR / Fold change vs veh, DEPTOR / RFU, CPM / Fold change vs veh, CPM / RFU, DNAJB6 / Fold change vs veh, DNAJB6 / RFU, CACNA2D3 / Fold change vs veh, CACNA2D3 / RFU, DTX4 / Fold change vs veh, DTX4 / RFU, TFCP2 / Fold change vs veh, TFCP2 / RFU, GMCL1 /// GMCL1P1 / Fold change vs veh, GMCL1 /// GMCL1P1 / RFU, AEBP2 / Fold change vs veh, AEBP2 / RFU, SNHG1 /// SNORD22 /// SNORD25 /// SNORD26 /// SNORD27 /// SNORD28 /// SNORD29 /// SNORD31 / Fold change vs veh, SNHG1 /// SNORD22 /// SNORD25 /// SNORD26 /// SNORD27 /// SNORD28 /// SNORD29 /// SNORD31 / Fold change (Aza/veh), C12orf56 (ProbeSet 11735607_a_at) / Fold change (ACY-1035/veh), C12orf56 (ProbeSet 11735607_a_at) / Fold change (Aza/veh), FGFR1OP (ProbeSet 11751329_s_at) / Fold change (ACY-1035/veh), FGFR1OP (ProbeSet 11751329_s_at) / Fold change (Aza/veh), VPS36 (ProbeSet 11739960_a_at) / Fold change (ACY-1035/veh), VPS36 (ProbeSet 11739960_a_at) / RFU SYPL1 (11715823_x_at) / Fold change /veh SYPL1 (11715823_x_at) / RFU IGFBP7 (11715501_s_at) / Fold change /veh IGFBP7 (11715501_s_at) / RFU REEP3 (11722064_at) / Fold change /veh REEP3 (11722064_at) / RFU IGLL1 (11728026_x_at) / Fold change /veh IGLL1 (11728026_x_at): dose or concentration left out as unconfirmed
Conditions: ProbeSet 11747888_a_at; LIST D

Nc1ncn([C@@H]2O[C@H](CO)[C@@H](O)[C@H]2O)c(=O)n1 [azacitidine]
RFU, SH3YL1: 53.76 RFU
